Paper PMC11667226 (Theranostics, 2025)
Non-standard residues stand in square brackets, D forms with d. Residues, ends and D or L forms follow the SMILES beside them. *: point of attachment. X1 = CC1(C)C(=CC=CC=CC=CC2=[N+](CCCCCC(=O)*)c3ccc4ccccc4c3C2(C)C)N(CCCCS(=O)(=O)[O-])c2ccc3ccccc3c21; Cha = N[C@@H](CC1CCCCC1)C(=O)O

System: oral and oropharyngeal squamous cell carcinoma (OSCC, OPSCC)
Test: Sensitivity of FG001 optical imaging for tumor detection, verified by histology
Assay type: in vivo, human
Settings: 16 patients with OSCC/OPSCC; FG001 36, 16 or 4 mg i.v. the evening prior to surgery; 11 optically guided biopsies and 5 cross-section samples
Experimental: For 11 out of 16 patients, a single biopsy was sampled from the resected tumor specimen ex-vivo on the back-table from a region with a bright fluorescence presented by the imaging system. For the remaining 5 patients, the tumors were cross-sectioned for detailed optical imaging and histopathological processing (see next section). The back-table imaging was performed with the same settings (Image profile: NIR_highcontrast or NIR_contrast, excitation laser: 805 nm) and with no other light sources, always with a perpendicular angle to the table, and a camera-to-tumor distance of 20 centimeters. The biopsies were taken with biopsy-punch-forceps, hereafter formalin (4%) fixed, paraffin-embedded (i.e. FFPE), and evaluated with histopathological assessment by a pathologist for the presence of cancer tissue - concluding on cancer-positive or negative.
For 5 out of the 16 patients, the resected tumor specimens were cut in half, sliced at the OR, and imaged with the Elevision® imaging system. The specimens underwent routine pathologic processing at the Department of Pathology. […] To evaluate the overlap between fluorescence signal from FG001, uPAR-expression, and tumor tissue, the cryosections were first fluorescently scanned with an Amersham Typhoon^TM scanner from Cytiva and, thereafter, stained using immunohistochemistry for uPAR and Cytokeratin (CK), and hematoxylin and eosin (H&E) stained. […]

CC(C)C[C@H](NC(=O)[C@H](Cc1ccc(O)cc1)NC(=O)[C@@H](CCCNC(=N)N)NC(=O)[C@@H](CO)NC(=O)[C@H](Cc1ccccc1)NC(=O)[C@H](CC1CCCCC1)NC(=O)[C@H](CC(=O)O)NC(=O)[C@H](CCC(=O)O)NC(=O)[C@H](CCC(=O)O)NC(=O)CCCCC[N+]1=C(C=CC=CC=CC=C2N(CCCCS(=O)(=O)[O-])c3ccc4ccccc4c3C2(C)C)C(C)(C)c2c1ccc1ccccc21)C(=O)N[C@@H](Cc1c[nH]c2ccccc12)C(=O)N[C@@H](CO)C(=O)O [FG001, ICG-Glu-Glu-AE105] (X1-EED[Cha]F[dS][dR]YLWS-OH; N-terminus and C-terminus assumed)
Sensitivity for tumor detection verified by histology: 100%
